Experimental data as given in patent publication US10881110B2, “Herbicidal compositions comprising isoxazolo[5,4-b]pyridines” (BASF SE, priority 2014, dated 2021).
Where “and” joins values, the source holds several entries; their conditions need not be identical. Equal values may be shown once. Read-outs that look alike come from different tables or passages of the source.

Key:
Experiment in all cases: greenhouse post-emergence herbicidal test
PHACA = type: in vivo
Procedure: (§1) The culture containers used were plastic pots containing medium loamy sand with approximately 4.6% of humus and 69.9% sand as substrate. The seeds of the test plants were sown separately for each species.
(§2) For the post-emergence treatment, the test plants were grown to a plant height of from 1 to 15 cm, depending on the plant habit, and only then treated with the active compounds which had been suspended or emulsified in water. To this end, the test plants were either sown directly, and grown in the same containers, or they were first grown separately as seedlings and transplanted into the test containers a few days prior to treatment.
(§3) Depending on the species, the plants were kept at 10-25° C. and 20-35° C., respectively.
(§4) The test period extended over 1 to 3 weeks. During this time, the plants were tended and their response to the individual treatments was evaluated 20 days after treatment except mentioned otherwise.
(§5) Evaluation was carried out using a scale from 0 to 100. 100 means no emergence of the plants, or complete destruction of at least the above-ground parts, and 0 means no damage or normal course of growth.
(§6) The respective stated components A and B, and, if appropriate, C, were formulated as a 10% by weight strength emulsion concentrate and, with addition of the amount of solvent system, introduced into the spray liquor used for applying the active compound. In the examples, the solvent used was water.
(§7) In the examples below, using the method of S. R. Colby (1967) “Calculating synergistic and antagonistic responses of herbicide combinations”, Weeds 15, p. 22 ff., the value E, which is expected if the activity of the individual active compounds is only additive, was calculated. E=X+Y−(X·Y/100)

STEME = type: in vivo, Stellaria media; parameters: key: scale 0 to 100
How it was run: (§8)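 Visual rating at 20 days after treatment used a 0–100 scale, where 100 meant no emergence or complete destruction of above-ground parts. Seedlings of 1–15 cm, grown at species-dependent 10-25° C or 20-35° C, received water-based spray liquor containing the formulated components.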

ALOMY = type: in vivo, Alopecurus myosuroides; parameters: key to herbicidal activity against ALOMY found: rating on a scale from 0 to 100; details: post emergence
How it was run: as §8

DIGSA = type: in vivo, Digitaria sanguinalis
Procedure: as §1, §2, §3, §4, §5, §6, §7

VIOAR = type: in vivo, Viola arvensis; parameters: key to herbicidal activity against VIOAR found / herbicidal activity against VIOLA found: rating on a scale from 0 to 100; details: post emergence; for pest or weed control at 62.5 g/ha / pest or weed control at 125 g/ha: Viola arvensis, post-emergence, read-out: herbicidal activity against VIOAR found
How it was run: (§9)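 Post-emergence greenhouse test: plants in loamy sand, sprayed at 1–15 cm height with aqueous spray liquor from 10% emulsion concentrates, kept at 10-25 °C or 20-35 °C by species. Damage scored 0–100 (100 = complete destruction), usually 20 days after treatment. Expected additive effect E from Colby: E=X+Y−(X·Y/100).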

POLPE = type: in vivo, Persicaria maculosa; parameters: key: scale 0 to 100
How it was run: as §9

AMARE = type: in vivo, Amaranthus retroflexus
Procedure: as §1, §2, §3, §4, §5, §6, §7

[1] = a.i. g/ha: I.1 31.25, B.67 125, 20 days after treatment
[2] = 6 days after treatment, g/ha a.i.: I.1 31.25, B.96 35, mixture 31.25+35
[3] = a.i. g/ha: I.1 6.9, B.67 62.5, 20 days after treatment
[4] = a.i. g/ha: I.1 20.8, B.67 62.5, 20 days after treatment
[5] = a.i. g/ha: I.1 31.25, B.190 62.5, 20 days after treatment
[6] = I.1 62.5 g/ha, B.89 12.5 g/ha a.i.
[7] = application rate a.i.: I.1 250 g/ha, B.193 15 g/ha, alone or as mixture (composition 1.193)
[8] = g/ha a.i.: I.1 62.5, B.52 2.5, mixture 62.5+2.5
[9] = g/ha a.i.: I.1 125, B.52 2.5, mixture 125+2.5
[10] = a.i. g/ha: I.1 31.25, B.76 225, 20 days after treatment

O=C(O)c1cc(C2CC2)nc2onc(C3CC3)c12 [I.1]
herbicidal activity against PHACA found (PHACA; [1]): 0%
herbicidal activity against PHACA found (PHACA; a.i. g/ha: I.1 62.5, B.67 125, 20 days after treatment): 35%
herbicidal activity against STEME found (STEME; 31.25 g/ha a.i.): 70
herbicidal activity against STEME found (STEME; 62.5 g/ha a.i.): 65
herbicidal activity against STEME found (STEME; [2]): 60
herbicidal activity against STEME found (STEME; I.1 15.62 g/ha, B.103 15 g/ha a.i.): 60
herbicidal activity against STEME found (STEME; I.1 15.62 g/ha, B.89 25 g/ha a.i.): 0
herbicidal activity against STEME found (STEME; I.1 31.25 g/ha, B.89 12.5 g/ha a.i.): 0
herbicidal activity against STEME found (STEME; I.1 31.25 g/ha, B.89 25 g/ha a.i.): 0
herbicidal activity against STEME found (STEME; I.1 alone 31.25 g/ha a.i.): 30
herbicidal activity against STEME found (STEME; a.i. g/ha: I.1 2.3, B.67 62.5, 20 days after treatment): 0%
herbicidal activity against STEME found (STEME; [3]): 0%
herbicidal activity against STEME found (STEME; a.i. g/ha: I.1 15.6, B.67 125, 20 days after treatment): 0%
herbicidal activity against STEME found (STEME; [4]): 50%
herbicidal activity against STEME found (STEME; [5]): 70%
herbicidal activity against STEME found (STEME; [1]): 70%
herbicidal activity against STEME found (STEME; a.i. g/ha: I.1 31.25, B.67 125, 20 days after treatment, sub-table r36-r43): 70%
herbicidal activity against STEME found (STEME; a.i. g/ha: I.1 62.5, B.191 225, 20 days after treatment): 85%
pest or weed control at 31.25 g/ha (ALOMY; Alopecurus myosuroides, post-emergence, 480 h, I.1 alone 31.25 g/ha a.i., read-out: herbicidal activity against ALOMY found): 0%
pest or weed control at 31.25 g/ha (ALOMY; Alopecurus myosuroides, post-emergence, 480 h, I.1 31.25 g/ha a.i., read-out: herbicidal activity against ALOMY found): 0%
pest or weed control at 62.5 g/ha (ALOMY; Alopecurus myosuroides, post-emergence, 480 h, I.1 62.5 g/ha a.i., read-out: herbicidal activity against ALOMY found): 0%
pest or weed control at 125 g/ha (ALOMY; Alopecurus myosuroides, post-emergence, 480 h, I.1 125 g/ha a.i., read-out: herbicidal activity against ALOMY found): 25%
pest or weed control at 15.62 g/ha (ALOMY; Alopecurus myosuroides, post-emergence, 480 h, single active, 15.62 g/ha a.i., read-out: herbicidal activity against ALOMY found): 0%
pest or weed control at 31.25 g/ha (ALOMY; Alopecurus myosuroides, post-emergence, 480 h, single active, 31.25 g/ha a.i., read-out: herbicidal activity against ALOMY found): 0%
pest or weed control at 62.5 g/ha (ALOMY; Alopecurus myosuroides, post-emergence, 480 h, single active, 62.5 g/ha a.i., read-out: herbicidal activity against ALOMY found): 0%
pest or weed control at 125 g/ha (ALOMY; Alopecurus myosuroides, post-emergence, 480 h, single active, 125 g/ha a.i., read-out: herbicidal activity against ALOMY found): 25%
herbicidal activity against ALOMY found (ALOMY; I.1 31.25 g/ha, B.95 1 g/ha a.i.): 0
herbicidal activity against ALOMY found (ALOMY; I.1 62.5 g/ha, B.88 1 g/ha a.i.): 0
herbicidal activity against ALOMY found (ALOMY; I.1 62.5 g/ha, B.88 2 g/ha a.i.): 0
herbicidal activity against ALOMY found (ALOMY; [6]): 0
herbicidal activity against ALOMY found (ALOMY; I.1 62.5 g/ha, B.95 1 g/ha a.i.): 0
herbicidal activity against ALOMY found (ALOMY; [3]): 0%
herbicidal activity against ALOMY found (ALOMY; [4]): 0%
herbicidal activity against ALOMY found (ALOMY; a.i. g/ha: I.1 62.5, B.67 62.5, 20 days after treatment): 0%
herbicidal activity against ALOMY found (ALOMY; [7]): 45
herbicidal activity against ALOMY found (ALOMY; applied alone at 31.25 g/ha a.i.): 0
herbicidal activity against ALOMY found (ALOMY; applied alone at 125 g/ha a.i.): 20 and 25
herbicidal activity against ALOMY found (ALOMY; g/ha a.i.: I.1 31.25, B.52 2.5, mixture 31.25+2.5): 25
herbicidal activity against ALOMY found (ALOMY; g/ha a.i.: I.1 62.5, B.20 4, mixture 62.5+4): 25
herbicidal activity against ALOMY found (ALOMY; [8]): 25
herbicidal activity against ALOMY found (ALOMY; g/ha a.i.: I.1 125, B.20 2, mixture 125+2): 30
herbicidal activity against ALOMY found (ALOMY; g/ha a.i.: I.1 125, B.20 4, mixture 125+4): 30
herbicidal activity against ALOMY found (ALOMY; g/ha a.i.: I.1 125, B.24 1, mixture 125+1): 30
herbicidal activity against ALOMY found (ALOMY; g/ha a.i.: I.1 125, B.24 2, mixture 125+2): 30
herbicidal activity against ALOMY found (ALOMY; [9]): 30
herbicidal activity against ALOMY found (ALOMY; g/ha a.i.: I.1 125, B.63 0.5, mixture 125+0.5): 30
herbicidal activity against DIGSA found (DIGSA; [10]): 35%
herbicidal activity against DIGSA found (DIGSA; a.i. g/ha: I.1 62.5, B.76 225, 20 days after treatment): 40%
herbicidal activity against DIGSA found (DIGSA; a.i. g/ha: I.1 62.5, B.80 250, 20 days after treatment): 40%
herbicidal activity against DIGSA found (DIGSA; [7]): 35
pest or weed control at 62.5 g/ha (VIOAR; I.1 alone 62.5 g/ha a.i.): 30%
pest or weed control at 62.5 g/ha (VIOAR; 62.5 g/ha a.i.): 0%
pest or weed control at 125 g/ha (VIOAR; 125 g/ha a.i.): 90%
pest or weed control at 62.5 g/ha (VIOAR; single active, 62.5 g/ha a.i.): 20%
pest or weed control at 125 g/ha (VIOAR; single active, 125 g/ha a.i.): 30%
herbicidal activity against VIOAR found (VIOAR; [2]): 0
herbicidal activity against VIOAR found (VIOAR; 6 days after treatment, g/ha a.i.: I.1 31.25, B.96 70, mixture 31.25+70): 0
herbicidal activity against VIOAR found (VIOAR; 6 days after treatment, g/ha a.i.: I.1 31.25, B.96 140, mixture 31.25+140): 0
herbicidal activity against VIOAR found (VIOAR; 6 days after treatment, g/ha a.i.: I.1 31.25, naptalam 200, mixture 31.25+200): 0
herbicidal activity against VIOAR found (VIOAR; 6 days after treatment, g/ha a.i.: I.1 62.5, B.96 35, mixture 62.5+35): 0
herbicidal activity against VIOAR found (VIOAR; 6 days after treatment, g/ha a.i.: I.1 62.5, B.96 70, mixture 62.5+70): 0
herbicidal activity against VIOAR found (VIOAR; 6 days after treatment, g/ha a.i.: I.1 62.5, B.96 140, mixture 62.5+140): 0
herbicidal activity against VIOAR found (VIOAR; 6 days after treatment, g/ha a.i.: I.1 62.5, naptalam 100, mixture 62.5+100): 0
herbicidal activity against VIOAR found (VIOAR; 6 days after treatment, g/ha a.i.: I.1 62.5, naptalam 200, mixture 62.5+200): 0
herbicidal activity against VIOAR found (VIOAR; [6]): 25
herbicidal activity against VIOAR found (VIOAR; application rate a.i.: I.1 31.25 g/ha, B.84 (paraquat-dichloride) 17.5 g/ha, alone or as mixture (composition 1.84)): 40
herbicidal activity against VIOAR found (VIOAR; application rate a.i.: I.1 62.5 g/ha, B.100 (isoxaflutole) 12.5 g/ha, alone or as mixture (composition 1.100)): 30
herbicidal activity against VIOAR found (VIOAR; application rate a.i.: I.1 62.5 g/ha, B.30 (imazamox) 3.75 g/ha, alone or as mixture (composition 1.030)): 0
herbicidal activity against VIOAR found (VIOAR; application rate a.i.: I.1 62.5 g/ha, B.84 (paraquat-dichloride) 17.5 g/ha, alone or as mixture (composition 1.84)): 40
herbicidal activity against VIOAR found (VIOAR; applied alone at 125 g/ha a.i.): 60 and 80
herbicidal activity against VIOAR found (VIOAR; [8]): 0
herbicidal activity against VIOAR found (VIOAR; g/ha a.i.: I.1 62.5, B.63 0.5, mixture 62.5+0.5): 0
herbicidal activity against VIOAR found (VIOAR; [9]): 0
herbicidal activity against VIOAR found (VIOAR; g/ha a.i.: I.1 125, B.52 5, mixture 125+5): 0
herbicidal activity against VIOAR found (VIOAR; g/ha a.i.: I.1 125, B.63 1, mixture 125+1): 0
herbicidal activity against VIOLA found (VIOAR; single active, 15.625 g/ha a.i.): 0
herbicidal activity against VIOLA found (VIOAR; single active, 62.5 g/ha a.i.): 20
herbicidal activity against VIOLA found (VIOAR; single active, 125 g/ha a.i.): 30
herbicidal activity against POLPE found (POLPE; 31.25 g/ha a.i.): 45 and 70
herbicidal activity against POLPE found (POLPE; [2]): 10
herbicidal activity against POLPE found (POLPE; application rate a.i.: I.1 31.25 g/ha, B.139 (pyroxasulfone) 12.5 g/ha, alone or as mixture (composition 1.139)): 30
herbicidal activity against AMARE found (AMARE; a.i. g/ha: I.1 15.6, B.190 62.5, 20 days after treatment): 30%
herbicidal activity against AMARE found (AMARE; a.i. g/ha: I.1 20.8, B.192 62.5, 20 days after treatment): 70%
herbicidal activity against AMARE found (AMARE; [5]): 35%
herbicidal activity against AMARE found (AMARE; [10]): 90%
herbicidal activity against AMARE found (AMARE; a.i. g/ha: I.1 31.25, bentazon Na 125, 20 days after treatment): 35%
